Values after ≈ are worked out from the molar mass of the structure shown.

Experiment [1] has as its system Enterococcus faecium (VanA VRE, ATCC BAA-2317). The settings on record: previously reported data; cited from earlier work.
For experiment [2], the system named is vancomycin-resistant Enterococcus faecalis (VanA VRE, BM4166). The settings on record: BM 4166; previously reported data; cited from earlier work.
For experiment [3], the system named is VanA VRE (E. faecalis BM 4166 and E. faecium ATCC BAA-2317). Kind of experiment: Cell wall permeability assay (propidium iodide uptake). The class given is cell-based, Enterococcus faecalis; Enterococcus faecium. From the text:
The effect of the compounds on cell membrane permeability was examined by measuring cytoplasmic membrane uptake of the fluorescent probe propidium iodide in the same VanA vancomycin-resistant E. faecalis (BM 4166) and E. faecium (ATCC BAA-2317) strains. This fluorescent probe only enters cells with permeabilized cell membranes and is detected by the emission of fluorescence upon intracellular nucleic acid binding [Boulos et al., J Microbiol Methods 1999, 37(1):77-86].
Fresh, mid-log phase VanA VRE in pH 7.2 buffer at 25° C. were preincubated with propidium iodide (10 μM) for 5 minutes before the test compounds were added, monitoring the fluorescence emission at 617 nm (excitation at 535 nm) over time, both pre (5 minutes) and post (15 minutes) compound addition. Rapid and sustained increases in fluorescence intensity are observed immediately upon addition of test compounds that induce bacterial cell membrane permeability.
One day before a study was run, cultures of vancomycin-resistant Enterococcus faecalis (VanA VRE, BM4166) and Enterococcus faecium (VanA VRE, ATCC BAA-2317), were inoculated and grown in an orbital shaker at 37° C. in 100% brain-heart infusion broth for 12 hours. The above bacterial solution was subjected to a subculture to obtain fresh mid-log phase bacterial cells (total volume of bacterial suspension=7 mL, incubation time=6 hours, OD600=0.6). After the cultured bacteria were harvested (3000 rpm, 4° C., 20 minutes), the white bacterial precipitate was washed and resuspended in 5 mM glucose and 5 mM HEPES buffer (1:1, 500 μL, pH=7.2).
This bacterial suspension (130 μL) was charged into a 96-well black plate with a clear bottom (Corning 3650). The propidium iodide dye (10 μL, 150 μM DMSO solution) was added to the above suspension and the fluorescence was monitored at 25° C. for 5 minutes at 30 second intervals using a microplate reader (Molecular Devices®, Max Gemini EX) at an excitation wavelength of 535 nm and an emission wavelength of 617 nm. The test compound (150 μM, 10 μL) was added to the cell suspension and the fluorescence was monitored at 25° C. for an additional 15 minutes.

Experiment [4] concerns Enterococcus faecium (VanA VRE, ATCC BAA-2317). In words: In vitro antimicrobial assay (MIC), VanA E. faecium. The settings on record: for MIC: Enterococcus faecium, read-out: Antimicrobial Activity, MIC, VanA E. faecium; for antibiotic susceptibility profile of the strain: VanA E. faecium ATCC BAA-2317. The class given is cell-based. From the text: (§1) One day before a study was run, fresh cultures of vancomycin-sensitive Staphylococcus aureus (VSSA strain ATCC 25923), methicillin and oxacillin-resistant Staphylococcus aureus subsp. aureus (MRSA strain ATCC 43300), vancomycin-resistant Enterococcus faecalis (VanA VRE, BM4166), Enterococcus faecium (VanA VRE, ATCC BAA-2317), vancomycin-resistant Enterococcus faecalis (VanB VRE, strain ATCC 51299), Escherichia coli (ATCC 25922), Acinetobacter baumannii (ATCC BAA-1710), Pseudomonas aeruginosa (ATCC 15442), Klebsiella pneumoniae (ATCC 700603) were inoculated and grown in an orbital shaker at 37° C. in 100% Mueller-Hinton broth (VSSA, MRSA and VanB VRE), 100% brain-heart infusion broth (VanA VRE, A. baumannii and K. pneumoniae) or 100% Luria broth (E. coli and P. aeruginosa). After 24 hours, the bacterial stock solutions were serially diluted with the culture medium (10% Mueller-Hinton broth for VSSA, MRSA and VanB VRE or 10% brain-heart infusion broth for VanA VRE A. baumannii and K. pneumoniae or 10% Luria Broth for E. coli and P. aeruginosa) to achieve a turbidity equivalent to a 1:100 dilution of a 0.5 M McFarland solution. This diluted bacterial stock solution was then inoculated in a 96-well V-shaped glass coated microtiter plate, supplemented with serial diluted aliquots of the antibiotic solution in DMSO (4 μL), to achieve a total assay volume of 0.1 mL. The plate was then incubated at 37° C. for 18 hours, after which minimal inhibitory concentrations (MICs) were determined by monitoring the cell growth (observed as a pellet) in the wells.
(§2) The lowest concentration of antibiotic (in μg/mL) capable of eliminating cell growth in the wells is the reported MIC value. The reported MIC values for the vancomycin analogues were determined against vancomycin as a standard in the first well.*
(§3) [*Clinical and Laboratory Standards Institute. Methods for Dilution Antimicrobial Susceptibility Tests for Bacteria That Grow Aerobically; Approved Standard, 7th ed.; CLSI document M07-A8; Clinical and Laboratory Standards Institute: Wayne, Pa., 2009.]

In experiment [5] the test system is vancomycin-resistant Enterococcus faecalis (VanA VRE, BM4166). Kind of experiment: In vitro antimicrobial assay (MIC), VanA E. faecalis. The class given is cell-based. The settings on record: for MIC: Enterococcus faecalis, VRE, read-out: Antimicrobial Activity, MIC, VanA E. faecalis; for antibiotic susceptibility profile of the strain: VanA E. faecalis BM 4166.
Excerpt: as §1, §2, §3

Turning to `CNC(CC(C)C)C(=O)NC1C(=O)NC(CC(N)=O)C(=O)NC2C(=N)NC3C(=O)NC(C(=O)NC(C(=O)O)c4cc(O)cc(O)c4-c4cc3ccc4O)C(O)c3ccc(c(Cl)c3)Oc3cc2cc(c3OC2OC(CO)C(O)C(O)C2OC2CC(C)(N)C(O)C(C)O2)Oc2ccc(cc2Cl)[C@@H]1O` (stereo partly drawn) [Compound 3], the “Antimicrobial Activity, MIC, VanA E. faecium” value in experiment [1] is 0.5 µg/mL. Moreover, the “Antimicrobial Activity, MIC, VanA E. faecalis” value in experiment [2] was 0.5 µg/mL.
As for `CN[C@H](CC(C)C)C(=O)N[C@H]1C(=O)N[C@@H](CC(N)=O)C(=O)N[C@H]2C(=O)N[C@@H]3C(=O)N[C@H](C(=O)N[C@H](C(=O)NCCCN(C)C)c4cc(O)cc(O)c4-c4cc3ccc4O)[C@H](O)c3ccc(c(Cl)c3)Oc3cc2cc(c3OC2OC(CO)C(O)[C@H](O)[C@@H]2O[C@H]2CC(C)(N)[C@H](O)[C@H](C)O2)Oc2ccc(cc2Cl)[C@H]1O` (stereo partly drawn) [Compound 9], the “induced cell membrane permeability (propidium uptake)” value (“induced cell membrane permeability” for short) in experiment [3] (10 μM compound) was “did not do so”. Also, the MIC in experiment [4] and in experiment [5] was 500 µg/mL (≈ 326 µM) in each case.
In the case of `CN[C@H](CC(C)C)C(=O)N[C@H]1C(=O)N[C@@H](CC(N)=O)C(=O)N[C@H]2C(=O)N[C@@H]3C(=O)N[C@H](C(=O)N[C@H](C(=O)NCCC[N+](C)(C)C)c4cc(O)cc(O)c4-c4cc3ccc4O)[C@H](O)c3ccc(c(Cl)c3)Oc3cc2cc(c3OC2OC(CO)C(O)[C@H](O)[C@@H]2O[C@H]2CC(C)(N)[C@H](O)[C@H](C)O2)Oc2ccc(cc2Cl)[C@H]1O` (stereo partly drawn) [Compound 10], the “induced cell membrane permeability” value in experiment [3] (10 μM compound) was “did not do so”; in experiment [3] (100 μM compound), “exhibited this induced permeability”. Besides, the MIC (in general, the smallest concentration in the dilution series that meets the test's criterion for growth inhibition) in experiment [4] worked out at 126 µg/mL; in experiment [5], 63 µg/mL.
On to `CN[C@H](CC(C)C)C(=O)N[C@H]1C(=O)N[C@@H](CC(N)=O)C(=O)N[C@H]2C(=O)N[C@@H]3C(=O)N[C@H](C(=O)N[C@H](C(=O)NCCC[N+]4(C)CCCC4)c4cc(O)cc(O)c4-c4cc3ccc4O)[C@H](O)c3ccc(c(Cl)c3)Oc3cc2cc(c3OC2OC(CO)C(O)[C@H](O)[C@@H]2O[C@H]2CC(C)(N)[C@H](O)[C@H](C)O2)Oc2ccc(cc2Cl)[C@H]1O` (stereo partly drawn) [Compound 11], for which the “induced cell membrane permeability” value in experiment [3] (10 μM compound) is reported as “produced pronounced, rapid cell membrane permeability”. Moreover, the minimum inhibitory concentration (MIC) in experiment [4] was found to be 2 µg/mL; in experiment [5], 4 µg/mL.
As for `CN[C@H](CC(C)C)C(=O)N[C@H]1C(=O)N[C@@H](CC(N)=O)C(=O)N[C@H]2C(=O)N[C@@H]3C(=O)N[C@H](C(=O)N[C@H](C(=O)NCCCN(C)C)c4cc(O)cc(O)c4-c4cc3ccc4O)[C@H](O)c3ccc(c(Cl)c3)Oc3cc2cc(c3OC2OC(CO)C(O)[C@H](O)[C@@H]2O[C@H]2CC(C)(NCc3ccc(-c4ccc(Cl)cc4)cc3)[C@H](O)[C@H](C)O2)Oc2ccc(cc2Cl)[C@H]1O` (stereo partly drawn) [Compound 14], the MIC in experiment [4] and in experiment [5] was 5 µg/mL (≈ 2.88 µM) in each case.
For the compound `CN[C@H](CC(C)C)C(=O)N[C@H]1C(=O)N[C@@H](CC(N)=O)C(=O)N[C@H]2C(=O)N[C@@H]3C(=O)N[C@H](C(=O)N[C@H](C(=O)NCCC[N+]4(C)CCCC4)c4cc(O)cc(O)c4-c4cc3ccc4O)[C@H](O)c3ccc(c(Cl)c3)Oc3cc2cc(c3OC2OC(CO)C(O)[C@H](O)[C@@H]2O[C@H]2CC(C)(NCc3ccc(-c4ccc(Cl)cc4)cc3)[C@H](O)[C@H](C)O2)Oc2ccc(cc2Cl)[C@H]1O` (stereo partly drawn) [Compound 16], the minimal inhibitory concentration (MIC) in experiment [4] and in experiment [5] was 2 µg/mL throughout.
As for `CCCCCCCCCCCCCC[N+](C)(C)CCCNC(=O)[C@H]1NC(=O)[C@H]2NC(=O)[C@@H](NC(=O)[C@@H]3NC(=O)[C@H](CC(N)=O)NC(=O)[C@H](NC(=O)[C@@H](CC(C)C)NC)[C@H](O)c4ccc(c(Cl)c4)Oc4cc3cc(c4OC3OC(CO)C(O)[C@H](O)[C@@H]3O[C@H]3CC(C)(NCc4ccc(-c5ccc(Cl)cc5)cc4)[C@H](O)[C@H](C)O3)Oc3ccc(cc3Cl)[C@H]2O)c2ccc(O)c(c2)-c2c(O)cc(O)cc21` (stereo partly drawn) [Compound 17], the minimal inhibitory concentration (MIC) in experiment [4] and in experiment [5] was 2 µg/mL each time.
For the compound `CC1(C)S[C@@H]2[C@H](NC(=O)[C@H](N)c3ccccc3)C(=O)N2[C@H]1C(=O)O` [ampicillin], the “antibiotic susceptibility profile of the strain” value in experiment [4] is “resistant”.
With `CC1(C)S[C@@H]2[C@H](NC(=O)Cc3ccccc3)C(=O)N2[C@H]1C(=O)O` [benzylpenicillin], the “antibiotic susceptibility profile of the strain” value in experiment [4] is “resistant”.
For the compound `O=C(N[C@H](CO)[C@H](O)c1ccc([N+](=O)[O-])cc1)C(Cl)Cl` [chloramphenicol], the “antibiotic susceptibility profile of the strain” value in experiment [5] is on record as “resistant”.
On to `CCN(CC)CCS(=O)(=O)[C@@H]1CCN2C(=O)c3coc(n3)CC(=O)C[C@H](O)/C=C(C)/C=C/CNC(=O)/C=C/[C@@H](C)[C@@H](C(C)C)OC(=O)[C@@H]12` [dalfopristine], for which the “antibiotic susceptibility profile of the strain” value in experiment [4] was “sensitive”.
On to `CC[C@H]1OC(=O)[C@H](C)[C@@H](O[C@H]2C[C@@](C)(OC)[C@@H](O)[C@H](C)O2)[C@H](C)[C@@H](O[C@@H]2O[C@H](C)C[C@H](N(C)C)[C@H]2O)[C@](C)(O)C[C@@H](C)C(=O)[C@H](C)[C@@H](O)[C@]1(C)O` [erythromycin], for which the “antibiotic susceptibility profile of the strain” value in experiment [4] and in experiment [5] was “resistant” throughout.
As to gentamicin, the “antibiotic susceptibility profile of the strain” value in experiment [5] is listed as “resistant”.
Consider teicoplanin, for which the “antibiotic susceptibility profile of the strain” value in experiment [4] and in experiment [5] was “resistant” throughout.
